From US20230131943A1, “ANTI-INFECTIVE AND ANTI-VIRAL COMPOUNDS AND COMPOSITIONS” (priority 2020, published 2023)

Assay: Dextran sulfate colitis model of inflammatory bowel disease in mice
Format: in vivo, mouse
Conditions: FIG. 18; all doses 1.34 μmol/kg; N=8
Source text: The potential efficacy of a Compound for Inflammatory bowel disease may be modeled as follows. C57 BLK6 or BALBc mice are provided with drinking water containing 2.5% or 2.8% dextran sulfate. Animals are weighed and observed for signs of intestinal disturbance daily. Signs include diarrhea or occult blood. Compound is formulated by mixing with a solution of 0.1 up to 1% citric acid depending on concentration. Compound is provided by oral gavage daily.

CCCCCCCCCCN(C)C1C[C@@H](C)O[C@@H](O[C@@H]2[C@@H](C)[C@H](O[C@H]3C[C@@](C)(OC)[C@@H](O[N+](=O)[O-])[C@H](C)O3)[C@@H](C)C(=O)O[C@H](CC)[C@@](C)(O)[C@H](O)[C@@H](C)N(C)C[C@H](C)C[C@@]2(C)O)[C@@H]1O (stereo partly shown) [Compound E-3]
Body weight and clinical score of BALBc mice at day 9 after commencing 2.5% DSS in water: stimulate inflammation
